Source: PMC12214830, “The human RIF1-Long isoform interacts with BRCA1 to promote recombinational fork repair under DNA replication stress” (Nature Communications, 2025)
One block for each compound: values may come before it.

What was measured:
[1] = test system: RIF1-BRCA1 proximity in RPE-1 cells; assay: RIF1-BRCA1 proximity ligation assay, RPE-1 cells; assay type: cell-based, human
Method: (§1) Proximity ligation assays were performed using the Duolink In Situ PLA Fluorescence Protocol (Sigma-Aldrich, DUO92101) following the manufacturer’s instruction. Cells were grown on glass coverslips and treated as indicated for specific experiments. Cells were then permeabilized with 0.5% TritonX-100 in PBS for 10 min on ice, and fixed with 3% formaldehyde, 2% sucrose in PBS for 10 min at room temperature (RT). After fixation, coverslips were blocked in 3% BSA in PBS for 1 h at RT and incubated with primary antibodies (anti-RIF1, Bethel laboratories A300-568A, 1:1000 dilution; anti-BRCA1, Santa Cruz Biotechnologies, sc-6954, 1:200 dilution), for 1 h at RT in a humidity chamber. Primary antibodies were then washed off with PLA washing buffer A supplied in the Duolink In Situ PLA kit. Coverslips were next incubated sequentially with PLA Probes (1 h at 37 °C), ligation solution (30 min at 37 °C) and amplification solution (100 min at 37 °C), with washes by washing buffer A in between each step. At the end of incubation, coverslips were washed with washing buffer B supplied in the Duolink In Situ PLA kit. Coverslips were then mounted on glass slides with PLA Mounting medium with DAPI. Images were captured by fluorescence microscopy (Zeiss Axio Imager). PLA foci number in each nucleus were analysed by CellProfiler Software[74] with a custom-made pipeline.
For EdU labelling combined with proximity ligation assay, cells were labelled with 10 µM EdU for 15 min, washed free of EdU and next incubated with medium containing 4 mM HU medium for 4 h. Cells were then permeabilized, fixed and subjected to RIF1-BRCA1 PLA procedures. After all PLA steps, EdU detection was performed following manufacturer’s instructions in the Click-iT EdU Imaging Kit (Invitrogen, C10640).
(§2) For proximity ligation assays and immunofluorescence signal intensity measurements, when comparing between two samples, statistical significance of differences was calculated by Mann-Whitney test for non-parametric distributions using GraphPad Prism software (v.9). When comparing among three or more samples, p values were calculated by Kruskal-Wallis test for non-parametric distributions with Dunn’s multiple comparisons using GraphPad Prism software (v.9). For RIF1 foci formation analysis (Fig. 6B), p values were calculated by two-tailed Student’s t test. For nuclear BRCA1 intensity fold change analyses (Fig. 6C, D), p values were calculated by two-tailed one-sample t test using GraphPad Prism software (v.9). For RAD51 foci formation analyses (Fig. 7B, E and Supplementary Fig. 7B), p values were calculated by chi-square test. For HR Reporter assay analysis (Fig. 7G and Supplementary Fig. 7L), p values were calculated by two-tailed paired Student’s t test. For micronuclei frequency analysis (Fig. 7H), p values were calculated by one-tailed paired Student’s t test. All Student’s t tests were performed with Excel T.TEST function. Chi-square tests were performed with the online Chi-square test calculator at https://www.socscistatistics.com/tests/chisquare2/default2.aspx. Sample number n for all box-and-whisker plots and dot plots are listed in Supplementary Data 1.

HCT116 cells = assay: colony formation (clonogenic survival) assay, HCT116 cells; assay type: cell-based, human; conditions: for colony survival, RIF1-L cells: HCT116 expressing only RIF1-L, versus RIF1-WT; for colony survival, RIF1-S cells: HCT116 expressing only RIF1-S, versus RIF1-KO
Method: For HCT116-derived cells, cells were plated in 6-well plates at 250 cells/well, in triplicate for each drug concentration. Cells were incubated with drugs for 24 h, after which drug-containing medium was replaced with drug-free medium. Seven days later colony counting was performed using a Nikon Eclipse TS100 microscope. For the IR sensitivity test, cells were plated following the same procedure, then irradiated at desired doses and incubated for 7 days before colony counting. Clusters with more than 20 cells were counted as colonies. Mean and standard error of each triplicate was calculated.

[2] = test system: RIF1-BRCA1 proximity in HeLa cells; assay: RIF1-BRCA1 proximity ligation assay, HeLa cells; assay type: cell-based, human; conditions: HeLa +RIF1-L
Method: as §1, §2

RIF1-L-pS2265 antibody = assay: ELISA, RIF1-L pS2265 antibody binding to exon 31 peptides; design: key: absorbance at 450 nm, blank-subtracted
Method: Two biotinylated peptides corresponding to exon 31 of human RIF1-L without phosphorylation (Biotin-(long chain)-[…]) and with phosphorylation at S2265 (Biotin-(long chain)-[…]-pS-[…]) were synthesised by Eurogentec Ltd (Southampton, Hampshire, UK). Two peptides were mixed in a variable ratio of 0–1% phosphorylated peptide/total peptide. The concentration of total peptide was kept constant at 250 nM in the ELISA wash buffer (1x TBS with 0.1% BSA and 0.05% Tween-20). The peptides were incubated within streptavidin-coated 96-well plates (Pierce Streptavidin Coated High Capacity Plates, Thermo Scientific, 15500) for 2 h at room temperature. After washing with ELISA wash buffer, the RIF1-L pS2265 phospho-antibody (1:2500 dilution) was added and incubated for 2 h at room temperature, followed by washing and incubation with HRP-conjugated secondary antibody (anti-rabbit; Bio-Rad #1706515, 1/10,000 dilution) for 1 h at room temperature. After washing, TMB substrate solution (1-Step Slow TMB-Elisa Substrate Solution, ThermoFisher, 34024) was added to develop the blue colour. 1 N HCl was then added to stop the reaction. Absorbance at 450 nm was measured. The average readings of the blank wells were subtracted. Mean and standard deviations of technical triplicates are shown.

micronuclei = micronuclei frequency, HeLa cells; assay type: cell-based, human; conditions: Fig.7H
Method: as §2

[3] = Fig S4I, ATMi (KU-60019) 2µM + HU 4mM 24hr
[4] = Fig S4J, DNA-PKi (NU-7441) 1µM + HU 4mM 24hr
[5] = HeLa RIF1 KO + GFP-RIF1 derivative cells, HU, experiment 07Jun2024
[6] = HeLa RIF1 KO + GFP-RIF1 derivative cells, unt, experiment 07Jun2024

Compound: C[C@@]1(CO)[C@H](O)CC[C@@]2(C)[C@H]1CC[C@H]1C[C@@H]3C[C@@]12CC[C@]3(O)CO [APH, aphidicolin]
RIF1-BRCA1 PLA foci ([1]; APH 4 µM 24 h): also induced PLA foci
RIF1-BRCA1 PLA foci per nucleus, mean ([1]; Fig 3C, APH 4 µM 24 h): 1.540
RIF1-BRCA1 PLA foci per nucleus, median ([1]; Fig 3C, APH 4 µM 24 h): 1
colony survival, RIF1-L cells (HCT116 cells): RIF1-L conferred resistance comparable to RIF1-WT
colony survival, RIF1-S cells (HCT116 cells): exhibited hypersensitivity to these drugs similar to RIF1-KO cells

Compound: CC[C@@]1(O)C(=O)OCc2c1cc1n(c2=O)Cc2cc3ccccc3nc2-1 [CPT, camptothecin]
RIF1-BRCA1 PLA foci ([1]; CPT 100 nM 24 h): also induced PLA foci
RIF1-BRCA1 PLA foci per nucleus, mean ([1]; Fig 3C, CPT 100 nM 24 h): 4.982
RIF1-BRCA1 PLA foci per nucleus, median ([1]; Fig 3C, CPT 100 nM 24 h): 4
colony survival, RIF1-L cells (HCT116 cells): RIF1-L conferred resistance comparable to RIF1-WT
colony survival, RIF1-S cells (HCT116 cells): exhibited hypersensitivity to these drugs similar to RIF1-KO cells

Compound: C[C@@H]1CN(CC(=O)Nc2ccc3c(c2)Cc2cccc(-c4cc(=O)cc(N5CCOCC5)o4)c2S3)C[C@H](C)O1 [KU-60019]
RIF1-BRCA1 PLA foci per nucleus, mean [2, 3]: 18.33
RIF1-BRCA1 PLA foci per nucleus, median [2, 3]: 2, 17, 17
RIF1-BRCA1 PLA ([2]; ATMi (KU-60019) 2 µM 24 h + HU 4 mM 24 h): no apparent effect

Compound: O=c1cc(N2CCOCC2)oc2c(-c3cccc4c3sc3ccccc34)cccc12 [NU-7441]
RIF1-BRCA1 PLA ([1]; DNA-PKi (NU-7441) 1 µM 24 h + HU 4 mM 24 h): no apparent effect
RIF1-BRCA1 PLA foci per nucleus, mean [1, 4]: 7.597
RIF1-BRCA1 PLA foci per nucleus, median [1, 4]: 0, 5, 5

A450, Average (RIF1-L-pS2265 antibody; 0.00% phosphorylated/total peptide (250 nM total), mean of technical triplicates): 0.009
A450 (RIF1-L-pS2265 antibody; 0.00% phosphorylated/total peptide (250 nM total), replicate 1): 0.01
A450 (RIF1-L-pS2265 antibody; 0.00% phosphorylated/total peptide (250 nM total), replicate 2): 0.008
A450 (RIF1-L-pS2265 antibody; 0.00% phosphorylated/total peptide (250 nM total), replicate 3): 0.01
A450, Average (RIF1-L-pS2265 antibody; 0.13% phosphorylated/total peptide (250 nM total), mean of technical triplicates): 0.104
A450 (RIF1-L-pS2265 antibody; 0.13% phosphorylated/total peptide (250 nM total), replicate 1): 0.106
A450 (RIF1-L-pS2265 antibody; 0.13% phosphorylated/total peptide (250 nM total), replicate 2): 0.104
A450 (RIF1-L-pS2265 antibody; 0.13% phosphorylated/total peptide (250 nM total), replicate 3): 0.103
A450, Average (RIF1-L-pS2265 antibody; 0.25% phosphorylated/total peptide (250 nM total), mean of technical triplicates): 0.166
A450 (RIF1-L-pS2265 antibody; 0.25% phosphorylated/total peptide (250 nM total), replicate 1): 0.16
A450 (RIF1-L-pS2265 antibody; 0.25% phosphorylated/total peptide (250 nM total), replicate 2): 0.169
A450 (RIF1-L-pS2265 antibody; 0.25% phosphorylated/total peptide (250 nM total), replicate 3): 0.169
A450, Average (RIF1-L-pS2265 antibody; 0.50% phosphorylated/total peptide (250 nM total), mean of technical triplicates): 0.239
A450 (RIF1-L-pS2265 antibody; 0.50% phosphorylated/total peptide (250 nM total), replicate 1): 0.247
A450 (RIF1-L-pS2265 antibody; 0.50% phosphorylated/total peptide (250 nM total), replicate 2): 0.216
A450 (RIF1-L-pS2265 antibody; 0.50% phosphorylated/total peptide (250 nM total), replicate 3): 0.255
A450, Average (RIF1-L-pS2265 antibody; 1.00% phosphorylated/total peptide (250 nM total), mean of technical triplicates): 0.346
A450 (RIF1-L-pS2265 antibody; 1.00% phosphorylated/total peptide (250 nM total), replicate 1): 0.348
A450 (RIF1-L-pS2265 antibody; 1.00% phosphorylated/total peptide (250 nM total), replicate 2): 0.343
A450 (RIF1-L-pS2265 antibody; 1.00% phosphorylated/total peptide (250 nM total), replicate 3): 0.347
A450, Average (RIF1-L-pS2265 antibody; Standard 0.13%, average of 3, right block): 0.104
A450 (RIF1-L-pS2265 antibody; Standard 0.13%, replicate 1, left block): 0.155
A450 (RIF1-L-pS2265 antibody; Standard 0.13%, replicate 1, right block (0.049 below left block)): 0.106
A450 (RIF1-L-pS2265 antibody; Standard 0.13%, replicate 2, left block): 0.153
A450 (RIF1-L-pS2265 antibody; Standard 0.13%, replicate 2, right block (0.049 below left block)): 0.104
A450 (RIF1-L-pS2265 antibody; Standard 0.13%, replicate 3, left block): 0.152
A450 (RIF1-L-pS2265 antibody; Standard 0.13%, replicate 3, right block (0.049 below left block)): 0.103
A450, Average (RIF1-L-pS2265 antibody; Standard 0.25%, average of 3, right block): 0.166
A450 (RIF1-L-pS2265 antibody; Standard 0.25%, replicate 1, left block): 0.209
A450 (RIF1-L-pS2265 antibody; Standard 0.25%, replicate 1, right block (0.049 below left block)): 0.16
A450 (RIF1-L-pS2265 antibody; Standard 0.25%, replicate 2, left block): 0.218
A450 (RIF1-L-pS2265 antibody; Standard 0.25%, replicate 2, right block (0.049 below left block)): 0.169
A450 (RIF1-L-pS2265 antibody; Standard 0.25%, replicate 3, left block): 0.218
A450 (RIF1-L-pS2265 antibody; Standard 0.25%, replicate 3, right block (0.049 below left block)): 0.169
A450, Average (RIF1-L-pS2265 antibody; Standard 0.50%, average of 3, right block): 0.239
A450 (RIF1-L-pS2265 antibody; Standard 0.50%, replicate 1, left block): 0.296
A450 (RIF1-L-pS2265 antibody; Standard 0.50%, replicate 1, right block (0.049 below left block)): 0.247
A450 (RIF1-L-pS2265 antibody; Standard 0.50%, replicate 2, left block): 0.265
A450 (RIF1-L-pS2265 antibody; Standard 0.50%, replicate 2, right block (0.049 below left block)): 0.216
A450 (RIF1-L-pS2265 antibody; Standard 0.50%, replicate 3, left block): 0.304
A450 (RIF1-L-pS2265 antibody; Standard 0.50%, replicate 3, right block (0.049 below left block)): 0.255
A450, Average (RIF1-L-pS2265 antibody; Standard 1.00%, average of 3, right block): 0.346
A450 (RIF1-L-pS2265 antibody; Standard 1.00%, replicate 1, left block): 0.397
A450 (RIF1-L-pS2265 antibody; Standard 1.00%, replicate 1, right block (0.049 below left block)): 0.348
A450 (RIF1-L-pS2265 antibody; Standard 1.00%, replicate 2, left block): 0.392
A450 (RIF1-L-pS2265 antibody; Standard 1.00%, replicate 2, right block (0.049 below left block)): 0.343
A450 (RIF1-L-pS2265 antibody; Standard 1.00%, replicate 3, left block): 0.396
A450 (RIF1-L-pS2265 antibody; Standard 1.00%, replicate 3, right block (0.049 below left block)): 0.347
Compound: Biotin-(long chain)-HNTTSAKGFLSPGSR-pS-PKFKSSKKCL [RIF1-L-phosphoS2265 peptide, biotinylated exon 31 peptide of human RIF1-L phosphorylated at S2265]

Compound: Phleomycin
colony growth after treatment, RIF1-L and RIF1-S cells (HCT116 cells; HCT116 expressing only RIF1-L or only RIF1-S): able to support colony growth

Compound: RIF1-L -APKF
Micronuclei per 100 (micronuclei; HU, experiment 14Apr2024): 14.2857
Micronuclei per 100 (micronuclei; [5]): 12.35
Micronuclei per 100 (micronuclei; [6]): 6.03
Micronuclei per 100 (micronuclei; unt, experiment 14Apr2024): 4.214

Compound: RIF1-S
Micronuclei per 100 (micronuclei; HU, experiment 14Apr2024): 12.4358
Micronuclei per 100 (micronuclei; [5]): 12.93
Micronuclei per 100 (micronuclei; [6]): 6.41
Micronuclei per 100 (micronuclei; unt, experiment 14Apr2024): 6.217
